Columns and labels:
[1] = test system: colon (HCT116) tumor cell line; experiment: Methylene Blue Growth Inhibition Assay, HCT116; format: cell-based; conditions: Homo sapiens, HCT-116, 72 h; Cell Line HCT116, 3 days; read-out: MeB IC50
Description: (§1) Normal Human foreskin fibroblasts (HFF) and human colon (HCT116, RKO), lung (H460), prostate (PC3), and breast tumor (MCF7) cell lines were cultured in high glucose DMEM (Life Technologies) containing 10% fetal bovine serum (FBS) at 37° C. in a humidified 10% CO2, 90% air incubator. Cells were harvested using trypsin/EDTA, counted using a haemocytometer, and plated in 100 μl of the appropriate media, at the following densities, in a 96-well tissue culture plate (Falcon 3075): HFF 5,000 cells/well, HCT116 3,000 cells/well, RKO 2,500 cells/well, H460 2,000 cells/well, PC3 8,000 cells/well, MCF7 4,000 cells/well. The next day, compounds were diluted in DMEM containing 100 μg/ml gentamicin, at twice the final required concentration, from 10 mM stock solutions in DMSO. 100μ/well of these dilutions were added to the 100 μl of media currently on the cell plates. Medium containing 0.6% DMSO was added to control wells. Compounds diluted in DMEM were added to all cell lines. The final concentration of DMSO in all wells was 0.3%. Cells were incubated at 37° C., 10% CO2 for 3 days. Medium was removed by aspiration. Cell biomass was estimated by staining cells with […] per well methylene blue (Sigma M9140, 0.5% in 50:50 ethanol:water), and incubation at room temperature for at least 30 minutes. Stain was removed, and the plates rinsed under a gentle stream of water, and air-dried. To release stain from the cells 100 μl of solubilization solution was added (1% N-lauroyl sarcosine, Sodium salt, Sigma L5125, in PBS), and plates were shaken gently for about 30 minutes. Optical density at 620 nm was measured on a microplate reader. Percent inhibition of cell growth was calculated relative to vehicle treated control wells. Concentration of compound that inhibits 50% of cell growth (IC50) was interpolated using nonlinear regression (Levenberg-Marquardt) and the equation, y=Vmax*(1-(x/(K+x)))+Y2, where “K” was equal to the IC50. In Table 1, +=10−>30 uM; ++=1−10 uM: +++=<1 uM.

[2] = test system: Normal Human foreskin fibroblasts (HFF); experiment: Methylene Blue Growth Inhibition Assay, HFF; format: cell-based; conditions: 72 h, Cell Line HFF, 3 days, read-out: MeB IC50
Description: as §1

[3] = test system: colon (RKO) tumor cell line; experiment: Methylene Blue Growth Inhibition Assay, RKO; format: cell-based; conditions: Homo sapiens, 72 h, 3 days, read-out: MeB IC50
Description: as §1

[4] = test system: lung (H460) tumor cell line; experiment: Methylene Blue Growth Inhibition Assay, H460; format: cell-based; conditions: Homo sapiens, NCI-H460, 72 h; Cell Line H460, 3 days; read-out: MeB IC50
Description: as §1

[5] = test system: breast tumor (MCF7) cell line; experiment: Methylene Blue Growth Inhibition Assay, MCF7; format: cell-based; conditions: Homo sapiens, 72 h; Cell Line MCF7, 3 days; read-out: MeB IC50
Description: as §1

PLK1 kinase domain = molecular target: T1, PLK1 kinase domain (Homo sapiens, UniProt P53350); experiment: Assay for Inhibition of PLK1 (SPA enzyme activity); format: biochemical; conditions: 2 μM ATP, read-out: Ave pIC50 PLK Enzyme Inhibition (converted)
T1 construct: made in house; host or cells: baculovirus-infected T. ni insect cells
T1 sequence (P53350 21-346): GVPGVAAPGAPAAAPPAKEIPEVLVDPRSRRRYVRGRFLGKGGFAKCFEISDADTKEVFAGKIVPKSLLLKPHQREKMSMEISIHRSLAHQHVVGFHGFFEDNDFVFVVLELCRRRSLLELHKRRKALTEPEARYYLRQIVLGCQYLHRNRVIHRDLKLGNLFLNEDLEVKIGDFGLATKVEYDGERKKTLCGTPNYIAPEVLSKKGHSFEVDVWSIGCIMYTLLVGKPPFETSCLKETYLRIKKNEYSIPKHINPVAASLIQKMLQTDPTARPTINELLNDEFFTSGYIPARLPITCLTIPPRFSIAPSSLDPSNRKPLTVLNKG
Description: All procedures were performed at 4° C. Cells were lysed in so mM HEPES, 200 mM NaCl, so mM imidazole, 5% glycerol; pH 7.5. The homogenate was centrifuged at 14K rpm in a SLA-1500 rotor for 1 hr and the supernatant filtered through a 1.2 micron filter. The supernatant was loaded onto a Nickel chelating Sepharose (Amersham Pharmacia) column and washed with lysis buffer. Protein was eluted using 20%, 30% and 100% buffer B steps where buffer B is 50 mM HEPES, 200 mM NaCl, 300 mM imidazole, 5% glycerol; pH 7.5. Fractions containing PLK were determined by SDS-PAGE. Fractions containing PLK were diluted five-fold with so mM HEPES, 1 mM DTT, 5% glycerol; pH 7.5, then loaded on an SP Sepharose (Amersham Pharmacia) column. After washing the column with so mM HEPES, 1 mM DTT, 5% glycerol; pH 7.5, PLK was step eluted with so mM HEPES, 1 mM DTT, 500 mM NaCl; 5% glycerol; pH 7.5. PLK was concentrated using a 10 kDa molecular weight cutoff membrane and then loaded onto a Superdex 200 gel filtration (Amersham Pharmacia) column equilibrated in 25 mM HEPES, 1 mM DTT, 500 mM NaCl, 5% glycerol; pH 7.5. Fractions containing PLK were determined by SDS-PAGE. PLK was pooled, aliquoted and stored at −80° C. Samples were quality controlled using mass spectrometry, N-terminal sequencing and amino acid analysis.
B. Enzyme activity+/−inhibitors was determined as follows:
Compounds were added to the plate (1 μl in […]). […] Reaction Mix B is prepared as follows at 4° C.: • Reaction Mix B (Enzyme Mix) • 25 mM HEPES, pH 7.2 • 15 mM MgCl2 • 0.15 mg/ml BSA • 2 mM DTT • 2-10 nM PLK1 kinase domain
Reaction Mix A (20 μl) is added per well. Reaction Mix B (20 μl) is added per well. Incubate 1.5 hrs. at RT. The enzymatic reaction is stopped with 175 μl of SPA/EDTA bead mix (29 mM EDTA, 2.5 mg/ml Streptavidin-coated SPA in Standard Dulbecco's PBS (without Mg^2+ and Ca^2+), 60 μM ATP). Plates are sealed spun (after a 1 hr incubation at RT) at 1,000×g for 7 min or settled overnight, then plates counted in Packard TopCount for 30 seconds/well.

[6] = test system: prostate (PC3) tumor cell line; experiment: Methylene Blue Growth Inhibition Assay, PC3; format: cell-based; conditions: Homo sapiens, 72 h; Cell Line PC3, 3 days; read-out: MeB IC50
Description: as §1

## Cc1ccccc1COc1cc(-n2cnc3ccc(Cl)cc32)sc1C(N)=O [Example 61]
[1]
  IC50: 1 to 10 µM
[2]
  IC50: > 10 µM
[3]
  IC50: 1 to 10 µM
[4]
  IC50: 1 to 10 µM
[5]
  IC50: 1 to 10 µM
PLK1 kinase domain
  IC50: < 0.1 µM
[6]
  IC50: > 10 µM

## COc1cc2ncn(-c3cc(OCc4ccccc4[S+](C)[O-])c(C(N)=O)s3)c2cc1OC (stereo not drawn) [Example 98, 5-(5,6-Dimethoxy-1H-benzimidazol-1-yl)-3-{[2-(methylsulfinyl)benzyl]oxy}thiophene-2-carboxamide]
[1]
  IC50: 1 to 10 µM
[2]
  IC50: > 10 µM
[3]
  IC50: 1 to 10 µM
[4]
  IC50: 1 to 10 µM
[5]
  IC50: 1 to 10 µM
PLK1 kinase domain
  IC50: 0.1 to 10 µM
[6]
  IC50: 1 to 10 µM

## COc1cc2ncn(-c3cc(OCc4ccccc4Br)c(C(N)=O)s3)c2cc1OC [Example 65, 3-[(2-Bromobenzyl)oxy]-5-(5,6-dimethoxy-1H-benzimidazol-1-yl)thiophene-2-carboxamide]
[1]
  IC50: < 1 µM
[2]
  IC50: > 10 µM
[3]
  IC50: < 1 µM
[4]
  IC50: < 1 µM
[5]
  IC50: < 1 µM
PLK1 kinase domain
  IC50: < 0.1 µM
[6]
  IC50: > 10 µM

## O=C(O)c1sc(-n2cnc3ccc(Cl)cc32)cc1OCc1ccc(F)cc1F [Example 71, 5-(6-Chloro-1H-benzimidazol-1-yl)-3-[(2,4-difluorobenzyl)oxy]-thiophene-2-carboxylic acid]
[1]
  IC50: > 10 µM
[2]
  IC50: > 10 µM
[3]
  IC50: > 10 µM
[4]
  IC50: > 10 µM
[5]
  IC50: > 10 µM
PLK1 kinase domain
  IC50: < 0.1 µM
[6]
  IC50: > 10 µM

## COc1cc2ncn(-c3cc(OCc4ccccc4Br)c(C(=O)O)s3)c2cc1OC [Example 76, 3-[(2-Bromobenzyl)oxy]-5-(5,6-dimethoxy-1H-benzimidazol-1-yl)thiophene-2-carboxylic acid]
[1]
  IC50: > 10 µM
[2]
  IC50: > 10 µM
[3]
  IC50: > 10 µM
[4]
  IC50: > 10 µM
[5]
  IC50: > 10 µM
PLK1 kinase domain
  IC50: < 0.1 µM
[6]
  IC50: > 10 µM

## CS(=O)(=O)Nc1ccc2ncn(-c3cc(OCc4ccccc4C(F)(F)F)c(C(N)=O)s3)c2c1 [Example 122, 5-{6-[(Methylsulfonyl)amino]-1H-benzimidazol-1-yl}-3-{[2-(trifluoromethyl)benzyl]-oxy}thiophene-2-carboxamide]
[1]
  IC50: 1 to 10 µM
[2]
  IC50: > 10 µM
[3]
  IC50: 1 to 10 µM
[4]
  IC50: 1 to 10 µM
[5]
  IC50: 1 to 10 µM
PLK1 kinase domain
  IC50: < 0.1 µM
[6]
  IC50: > 10 µM

## O=C(O)c1sc(-n2cnc3ccc(Br)cc32)cc1OCc1ccccc1C(F)(F)F [Example 74, 5-(6-Bromo-1H-benzimidazol-1-yl)-3-{[2-(trifluoromethyl)-benzyl]oxy}thiophene-2-carboxylic acid]
[1]
  IC50: > 10 µM
[2]
  IC50: > 10 µM
[3]
  IC50: > 10 µM
[4]
  IC50: 1 to 10 µM
[5]
  IC50: > 10 µM
PLK1 kinase domain
  IC50: < 0.1 µM
[6]
  IC50: > 10 µM

## CC(Oc1cc(-n2cnc3cc(N)ccc32)sc1C(N)=O)c1ccccc1Cl (stereo not drawn) [Example 157, 5-(5-Amino-1H-benzimidazol-1-yl)-3-[1-(2-chlorophenyl)ethoxy]thiophene-2-carboxamide]
[1]
  IC50: < 1 µM
[2]
  IC50: > 10 µM
[3]
  IC50: < 1 µM
[4]
  IC50: < 1 µM
[5]
  IC50: < 1 µM
PLK1 kinase domain
  IC50: < 0.1 µM
[6]
  IC50: < 1 µM

## NC(=O)c1sc(-n2cnc3ccc(OCCN4CCOCC4)cc32)cc1OCc1ccccc1C(F)(F)F [Example 138, 5-[6-(2-Morpholin-4-ylethoxy)-1H-benzimidazol-1-yl]-3-{[2-(trifluoromethyl)benzyl]oxy}thiophene-2-carboxamide]
[1]
  IC50: 1 to 10 µM
[2]
  IC50: 1 to 10 µM
[3]
  IC50: < 1 µM
[4]
  IC50: < 1 µM
[5]
  IC50: 1 to 10 µM
PLK1 kinase domain
  IC50: < 0.1 µM
[6]
  IC50: > 10 µM

## NC(=O)c1sc(-n2cnc3cc4c(cc32)OCCO4)cc1OCc1ccccc1C(F)(F)F [Example 123, 5-(6,7-Dihydro-1H-[1,4]dioxino[2,3f]benzimidazol-1-yl)-3-{[2-(trifluoromethyl)benzyl]-oxy}thiophene-2-carboxamide]
[1]
  IC50: 1 to 10 µM
[2]
  IC50: 1 to 10 µM
[3]
  IC50: 1 to 10 µM
[4]
  IC50: 1 to 10 µM
[5]
  IC50: 1 to 10 µM
PLK1 kinase domain
  IC50: < 0.1 µM
[6]
  IC50: > 10 µM

## COc1cc2ncn(-c3cc(OCCN4CCOCC4)c(C(N)=O)s3)c2cc1OC [Example 113, 5-(5,6-Dimethoxy-1H-benzimidazol-1-yl)-3-(2-morpholin-4-ylethoxy)thiophene-2-carboxamide]
[1]
  IC50: > 10 µM
[2]
  IC50: > 10 µM
[3]
  IC50: > 10 µM
[4]
  IC50: > 10 µM
[5]
  IC50: > 10 µM
PLK1 kinase domain
  IC50: 0.1 to 10 µM
[6]
  IC50: > 10 µM

## NC(=O)c1sc(-n2cnc3cc4c(cc32)OCCCO4)cc1OCc1ccccc1C(F)(F)F [Example 89]
[1]
  IC50: 1 to 10 µM
[2]
  IC50: > 10 µM
[3]
  IC50: 1 to 10 µM
[4]
  IC50: 1 to 10 µM
[5]
  IC50: 1 to 10 µM
PLK1 kinase domain
  IC50: < 0.1 µM
[6]
  IC50: > 10 µM

## O=C(O)c1sc(-n2cnc3ccc(Cl)cc32)cc1OCc1ccc(F)cc1Cl [Example 70, 5-(6-Chloro-1H-benzimidazol-1-yl)-3-[(2-Chloro-4-fluorobenzyl)oxy]-thiophene-2-carboxylic acid]
[1]
  IC50: > 10 µM
[2]
  IC50: > 10 µM
[3]
  IC50: > 10 µM
[4]
  IC50: > 10 µM
[5]
  IC50: > 10 µM
PLK1 kinase domain
  IC50: < 0.1 µM
[6]
  IC50: > 10 µM

## COc1cc2ncn(-c3cc(OCc4ccnc(N)c4)c(C(N)=O)s3)c2cc1OC [Example 100, 3-[(2-Aminopyridin-4-yl)methoxy]-5-(5,6-dimethoxy-1H-benzimidazol-1-yl)thiophene-2-carboxamide]
[1]
  IC50: > 10 µM
[2]
  IC50: > 10 µM
[3]
  IC50: > 10 µM
[4]
  IC50: > 10 µM
[5]
  IC50: > 10 µM
PLK1 kinase domain
  IC50: < 0.1 µM
[6]
  IC50: > 10 µM

## COc1cc2ncn(-c3cc(OCc4ccccc4C(F)(F)F)c(C(N)=S)s3)c2cc1OC [Example 145]
[1]
  IC50: > 10 µM
[2]
  IC50: > 10 µM
[3]
  IC50: > 10 µM
[4]
  IC50: > 10 µM
[5]
  IC50: > 10 µM
PLK1 kinase domain
  IC50: < 0.1 µM
[6]
  IC50: > 10 µM
